Measured values reported in patent US20090123563A1, “Pharmaceutical Preparations Comprising Insulin, Zinc Ions and Zinc-Binding Ligand” (NOVO NORDISK A/S, priority 2005, published 2009).

| melting point | Compound |
| --- | --- |
| 255 to 256 °C | COc1cc(OCc2c(F)cccc2[N+](=O)[O-])cc(OC)c1/C=C1\SC(=O)NC1=O |
| 104 to 105 °C | Cc1cccc(C)c1/C=C1\SC(=O)NC1=O |
| 331 to 333 °C | COc1cc(O)cc(OC)c1/C=C1\SC(=O)NC1=O |
| 241 to 242 °C | COc1cccc(OC)c1/C=C1\SC(=O)NC1=O |
| 256 °C | COc1cc(/C=C2\SC(=O)NC2=O)cc(I)c1O |
| 330 to 333 °C | O=C1NC(=O)/C(=C/c2c[nH]c3ccc([N+](=O)[O-])cc23)S1 |

More lines, now with the values behind:

| Compound | melting point |
| --- | --- |
| c1cc(COc2ccc3ccccc3c2)cc(-c2nnn[nH]2)c1 | 200 to 202 °C |
| CN(C)c1ccc(/C=C/C=C2\SC(=O)NC2=O)cc1 | 259 to 263 °C |
| O=C1NC(=O)/C(=C/c2cc3ccccc3o2)S1 | 265 to 266 °C |
| O=C1NC(=O)/C(=C/c2ccc3cc(O)ccc3c2)S1 | 310 to 314 °C |
| O=C1NC(=O)/C(=C/C(Cl)=C/c2ccccc2)S1 | 251 to 254 °C |
| O=C1NC(=O)/C(=C/c2cc3ccccc3[nH]c2=O)S1 | 338 to 347 °C |
| CC(/C=C1\SC(=O)NC1=O)=C\c1ccccc1 | 203 to 210 °C |
| O=C1NC(=O)/C(=C/c2c(Cl)cccc2Cl)S1 | 152 to 154 °C |
